This assay concerns the target T1, WIZ protein (HiBit-WIZ fusion protein) (Homo sapiens, UniProt O95785+Q96SW2).
T1 construct: expressed in transfected cells
Nature of the assay: Quantification of WIZ protein levels in HiBit tag fusion protein assay (WIZ HiBit assay in 293T cells). In kind it is cell-based. The following applies: for Dmax at 25 µM / remaining activity at 25 µM: HEK-293T, 293T cells; for Dmax at 25 µM: 100 − Amax, read-out: % degradation of WIZ (100 − Amax); for remaining activity at 25 µM: DMSO-normalized, curve-fitted percentage of WIZ-HiBit remaining at 25 uM, read-out: WIZ Amax; for DC50: WIZ HiBit assay in 293T cells, 10-point, 5-fold dose response, highest concentration 25 μM, about 18 hours, read-out: WIZ AC50. A digest of the protocol: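 HiBit-tagged WIZ (N-terminal tag, HSVTK promoter) stably expressed single-copy in 293T cells; 10-point 1:5 compound series, top 25 μM, ~18 h at 37 °C. Lytic HiBit/LgBit luminescence read; Amax = curve-fitted % WIZ-HiBit remaining at 25 μM, DMSO normalized to 100%.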
On the technique in general: HiBiT is a short tag that completes a luciferase, so light tracks the accessible tagged protein.

The text below walks through data of patent publication US11787785B2 (NOVARTIS AG, priority 2021, dated 2023).

T1 sequence (O95785 whole entry, the tested form may be a part): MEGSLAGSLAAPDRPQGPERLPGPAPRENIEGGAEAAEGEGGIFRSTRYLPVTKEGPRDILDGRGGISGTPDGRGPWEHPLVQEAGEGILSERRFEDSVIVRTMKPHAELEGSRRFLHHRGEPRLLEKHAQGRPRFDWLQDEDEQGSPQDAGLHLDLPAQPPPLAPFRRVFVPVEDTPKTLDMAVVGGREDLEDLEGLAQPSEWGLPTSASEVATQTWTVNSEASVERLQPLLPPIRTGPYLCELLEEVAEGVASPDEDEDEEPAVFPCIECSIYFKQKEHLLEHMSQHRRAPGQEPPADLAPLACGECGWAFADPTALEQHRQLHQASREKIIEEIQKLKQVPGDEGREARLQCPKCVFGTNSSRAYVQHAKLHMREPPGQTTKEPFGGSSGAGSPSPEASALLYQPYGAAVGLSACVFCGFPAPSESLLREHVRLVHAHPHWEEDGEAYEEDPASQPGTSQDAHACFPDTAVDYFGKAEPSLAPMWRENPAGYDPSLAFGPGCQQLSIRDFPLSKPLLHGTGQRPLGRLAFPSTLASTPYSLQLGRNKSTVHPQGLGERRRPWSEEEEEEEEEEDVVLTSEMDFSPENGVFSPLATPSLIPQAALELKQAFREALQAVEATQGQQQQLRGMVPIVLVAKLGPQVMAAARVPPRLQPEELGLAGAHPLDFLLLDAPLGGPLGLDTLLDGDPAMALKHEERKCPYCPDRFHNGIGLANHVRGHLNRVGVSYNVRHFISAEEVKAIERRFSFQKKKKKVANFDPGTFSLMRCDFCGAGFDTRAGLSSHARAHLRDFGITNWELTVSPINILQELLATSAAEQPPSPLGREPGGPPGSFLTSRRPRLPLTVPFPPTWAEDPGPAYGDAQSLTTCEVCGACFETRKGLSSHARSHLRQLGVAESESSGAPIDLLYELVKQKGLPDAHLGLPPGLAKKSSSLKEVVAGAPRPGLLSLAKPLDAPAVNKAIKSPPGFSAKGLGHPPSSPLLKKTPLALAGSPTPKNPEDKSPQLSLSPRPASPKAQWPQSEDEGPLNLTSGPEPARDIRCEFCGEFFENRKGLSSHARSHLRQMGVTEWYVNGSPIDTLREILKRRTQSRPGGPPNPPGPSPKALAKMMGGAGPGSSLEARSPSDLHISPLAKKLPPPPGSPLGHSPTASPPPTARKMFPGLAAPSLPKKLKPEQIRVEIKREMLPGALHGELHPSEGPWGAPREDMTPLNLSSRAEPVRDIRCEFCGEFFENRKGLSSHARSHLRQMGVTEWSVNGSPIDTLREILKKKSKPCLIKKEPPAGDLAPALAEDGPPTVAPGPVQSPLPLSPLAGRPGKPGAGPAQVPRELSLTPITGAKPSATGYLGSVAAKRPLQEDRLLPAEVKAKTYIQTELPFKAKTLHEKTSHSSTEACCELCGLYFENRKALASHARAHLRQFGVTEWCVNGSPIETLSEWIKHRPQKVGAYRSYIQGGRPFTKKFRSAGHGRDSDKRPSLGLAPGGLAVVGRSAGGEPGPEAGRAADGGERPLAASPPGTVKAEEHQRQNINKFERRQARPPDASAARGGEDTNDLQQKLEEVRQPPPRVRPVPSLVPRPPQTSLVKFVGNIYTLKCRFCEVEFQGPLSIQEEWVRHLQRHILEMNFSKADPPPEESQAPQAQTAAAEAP
T1 sequence (Q96SW2 whole entry, the tested form may be a part): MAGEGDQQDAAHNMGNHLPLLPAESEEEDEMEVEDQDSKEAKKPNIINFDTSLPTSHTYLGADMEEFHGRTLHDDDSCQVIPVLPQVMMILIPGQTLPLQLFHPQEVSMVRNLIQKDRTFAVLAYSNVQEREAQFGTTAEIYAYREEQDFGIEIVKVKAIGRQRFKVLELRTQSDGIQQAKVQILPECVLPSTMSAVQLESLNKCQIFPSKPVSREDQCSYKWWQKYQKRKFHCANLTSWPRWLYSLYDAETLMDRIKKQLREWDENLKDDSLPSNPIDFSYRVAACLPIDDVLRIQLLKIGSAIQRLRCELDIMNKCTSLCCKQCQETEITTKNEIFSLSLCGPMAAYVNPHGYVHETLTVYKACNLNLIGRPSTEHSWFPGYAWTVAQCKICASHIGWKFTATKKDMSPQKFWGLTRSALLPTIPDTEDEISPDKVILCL
T1 sequence (Q16531 whole entry partner, the tested form may be a part): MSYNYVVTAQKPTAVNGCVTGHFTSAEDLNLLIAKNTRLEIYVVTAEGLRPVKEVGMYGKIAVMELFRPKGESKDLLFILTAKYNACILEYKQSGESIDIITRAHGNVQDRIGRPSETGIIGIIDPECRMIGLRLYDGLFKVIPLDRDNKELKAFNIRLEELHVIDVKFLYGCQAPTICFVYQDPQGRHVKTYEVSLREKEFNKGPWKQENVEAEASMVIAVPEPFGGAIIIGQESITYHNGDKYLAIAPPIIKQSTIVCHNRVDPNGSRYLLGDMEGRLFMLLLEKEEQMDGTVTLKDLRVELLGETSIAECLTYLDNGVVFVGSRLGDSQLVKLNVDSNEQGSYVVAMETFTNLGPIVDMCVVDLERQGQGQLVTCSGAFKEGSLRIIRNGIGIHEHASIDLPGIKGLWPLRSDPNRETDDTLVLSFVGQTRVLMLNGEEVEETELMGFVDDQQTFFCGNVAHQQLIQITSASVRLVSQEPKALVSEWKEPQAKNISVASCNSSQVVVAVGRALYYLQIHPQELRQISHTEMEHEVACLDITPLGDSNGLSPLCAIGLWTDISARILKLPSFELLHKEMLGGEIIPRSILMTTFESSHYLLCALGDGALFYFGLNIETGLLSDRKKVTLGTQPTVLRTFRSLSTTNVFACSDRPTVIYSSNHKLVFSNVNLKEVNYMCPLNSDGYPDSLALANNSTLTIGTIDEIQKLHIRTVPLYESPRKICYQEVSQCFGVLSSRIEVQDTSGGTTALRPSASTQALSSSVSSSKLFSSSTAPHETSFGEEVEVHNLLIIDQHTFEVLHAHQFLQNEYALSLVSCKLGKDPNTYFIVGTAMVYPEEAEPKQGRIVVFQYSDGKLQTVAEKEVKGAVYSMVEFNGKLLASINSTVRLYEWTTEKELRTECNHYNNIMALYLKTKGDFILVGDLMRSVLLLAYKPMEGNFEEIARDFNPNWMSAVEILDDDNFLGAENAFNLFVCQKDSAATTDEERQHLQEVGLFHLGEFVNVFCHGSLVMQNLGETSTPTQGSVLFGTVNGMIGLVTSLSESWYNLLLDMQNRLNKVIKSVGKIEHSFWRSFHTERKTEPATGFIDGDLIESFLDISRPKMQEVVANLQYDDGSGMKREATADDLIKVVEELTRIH

Take `CC(C)CC(C)(C)N1CCC(Cc2ccn3ncc(N4CCC(=O)NC4=O)c3c2)CC1` [Example 139, 1-(5-((1-(2,4-dimethylpentan-2-yl)piperidin-4-yl)methyl)pyrazolo[1,5-a]pyridin-3-yl)dihydropyrimidine-2,4(1H,3H)-dione]: the Dmax at 25 µM worked out at 83%, the remaining activity at 25 µM was 17% and the DC50 was 0.003 µM.

For the compound `CC(C)(C1CCC(F)(F)CC1)N1CCC(Cc2ccn3ncc(N4CCC(=O)NC4=O)c3c2)CC1` [Example 140, 1-(5-((1-(2-(4,4-difluorocyclohexyl)propan-2-yl)piperidin-4-yl)methyl)pyrazolo[1,5-a]pyridin-3-yl)dihydropyrimidine-2,4(1H,3H)-dione], the Dmax at 25 µM came to 90%, the remaining activity at 25 µM came out at 10% and the DC50 was found to be 0.007 µM.

Turning to `C[C@H]1C[C@H](Cc2ccn3ncc(N4CCC(=O)NC4=O)c3c2)CCN1CC1CCCCC1` [Example 143], the Dmax at 25 µM came to 88%, the remaining activity at 25 µM is 12% and the DC50 turned out to be 0.004 µM.

On to `C[C@H]1C[C@H](Cc2ccn3ncc(N4CCC(=O)NC4=O)c3c2)CCN1CC1CCCC1` [Example 144], for which the Dmax at 25 µM was found to be 87%, the remaining activity at 25 µM was 13% and the DC50 was 0.008 µM.

In the case of `C[C@H]1C[C@H](Cc2ccn3ncc(N4CCC(=O)NC4=O)c3c2)CCN1CC1CCC1` [Example 146], the Dmax at 25 µM came to 82%, the remaining activity at 25 µM was determined as 18% and the DC50 was found to be 0.051 µM.

For `C[C@H]1C[C@H](Cc2ccn3ncc(N4CCC(=O)NC4=O)c3c2)CCN1CC1CCCCCC1` [Example 147], the Dmax at 25 µM is 90%, the remaining activity at 25 µM turned out to be 10% and the DC50 is 0.005 µM.

For `C[C@H]1C[C@H](Cc2ccn3ncc(N4CCC(=O)NC4=O)c3c2)CCN1CCC1CCOCC1` [Example 148], the Dmax at 25 µM came out at 86%, the remaining activity at 25 µM was 14% and the DC50 was 0.063 µM.

Turning to `C[C@H]1C[C@H](Cc2ccn3ncc(N4CCC(=O)NC4=O)c3c2)CCN1CC1CCC(C)(C)CC1` [Example 149], the Dmax at 25 µM was found to be 90%, the remaining activity at 25 µM worked out at 10% and the DC50 stood at 0.0004 µM.

On to `C[C@H]1C[C@H](Cc2ccn3ncc(N4CCC(=O)NC4=O)c3c2)CCN1Cc1cccnc1` [Example 150], for which the Dmax at 25 µM came out at 90%, the remaining activity at 25 µM stood at 10% and the DC50 came out at 0.0003 µM.

As for `O=C1CCN(c2cnn3ccc(CC4CCN(C[C@H]5CC[C@H](O)CC5)CC4)cc23)C(=O)N1` [Example 151, 1-(5-((1-(((1r,4r)-4-hydroxycyclohexyl)methyl)piperidin-4-yl)methyl)pyrazolo[1,5-a]pyridin-3-yl)dihydropyrimidine-2,4(1H,3H)-dione], the Dmax at 25 µM was determined as 86%, the remaining activity at 25 µM turned out to be 14% and the DC50 stood at 0.27 µM.

Turning to `C[C@H]1C[C@H](Cc2ccn3ncc(N4CCC(=O)NC4=O)c3c2)CCN1CC1CC(F)(F)C1` [Example 152, 1-(5-(((2S,4R)-1-((3,3-difluorocyclobutyl)methyl)-2-methylpiperidin-4-yl)methyl)pyrazolo[1,5-a]pyridin-3-yl)dihydropyrimidine-2,4(1H,3H)-dione], the Dmax at 25 µM is 81%, the remaining activity at 25 µM came out at 19% and the DC50 came out at 0.91 µM.

Regarding `CC(C)CN1CC[C@H](Cc2ccn3ncc(N4CCC(=O)NC4=O)c3c2)C[C@H]1C` [Example 153], the Dmax at 25 µM is 86%, the remaining activity at 25 µM turned out to be 14% and the DC50 worked out at 0.014 µM.

As for `C[C@@H]1C[C@@H](Cc2ccn3ncc(N4CCC(=O)NC4=O)c3c2)CCN1CC1CCOCC1` [Example 154], the Dmax at 25 µM was determined as 78%, the remaining activity at 25 µM worked out at 22% and the DC50 came out at 0.041 µM.

Take `C[C@@H]1C[C@@H](Cc2ccn3ncc(N4CCC(=O)NC4=O)c3c2)CCN1CC1CCC(F)(F)CC1` [Example 155]: the Dmax at 25 µM stood at 85%, the remaining activity at 25 µM was 15% and the DC50 is 0.009 µM.

In the case of `O=C1CCN(c2cnn3ccc(CN4CCN(CC5CCC(F)(F)CC5)CC4)cc23)C(=O)N1` [Example 157], the Dmax at 25 µM was found to be 83%, the remaining activity at 25 µM worked out at 17% and the DC50 was determined as 0.022 µM.

In the case of `O=C1CCN(c2cnn3ccc(CN4CCN(CC5CCCCCC5)CC4)cc23)C(=O)N1` [Example 158], the Dmax at 25 µM came to 82%, the remaining activity at 25 µM worked out at 18% and the DC50 was 0.025 µM.

Turning to `O=C1CCN(c2cnn3ccc(CN4CCN(CC5CCCC5)CC4)cc23)C(=O)N1` [Example 159], the Dmax at 25 µM was found to be 81%, the remaining activity at 25 µM turned out to be 19% and the DC50 worked out at 0.023 µM.

With `O=C1CCN(c2cnn3ccc(CN4CCN(CCC5CCOCC5)CC4)cc23)C(=O)N1` [Example 161], the Dmax at 25 µM was determined as 80%, the remaining activity at 25 µM is 20% and the DC50 came out at 0.115 µM.

On to `O=C1CCN(c2cnn3ccc(CN4CCN(CC5CCCOC5)CC4)cc23)C(=O)N1` (stereo not drawn) [Example 162], for which the Dmax at 25 µM worked out at 79%, the remaining activity at 25 µM came to 21% and the DC50 is 0.079 µM.

On to `CCCN1CCN(Cc2ccn3ncc(N4CCC(=O)NC4=O)c3c2)CC1` [Example 163], for which the Dmax at 25 µM is 76%, the remaining activity at 25 µM worked out at 24% and the DC50 turned out to be 0.561 µM.

`CCC(CC)N1CCN(Cc2ccn3ncc(N4CCC(=O)NC4=O)c3c2)CC1` [Example 164]: the Dmax at 25 µM came to 69%, the remaining activity at 25 µM is 31% and the DC50 was 0.323 µM.

As to `O=C1CCN(c2cnn3ccc(CN4CCN(Cc5ccccc5)CC4)cc23)C(=O)N1` [Example 165], the Dmax at 25 µM stood at 69%, the remaining activity at 25 µM was 31% and the DC50 was determined as 0.198 µM.

With `CC(C)N1CCN(Cc2ccn3ncc(N4CCC(=O)NC4=O)c3c2)CC1` [Example 166], the Dmax at 25 µM came out at 66%, the remaining activity at 25 µM was determined as 34% and the DC50 turned out to be 0.632 µM.

Consider `Cc1ccccc1CN1CCN(Cc2ccn3ncc(N4CCC(=O)NC4=O)c3c2)CC1` [Example 167], for which the Dmax at 25 µM was 57%, the remaining activity at 25 µM was 43% and the DC50 turned out to be 0.286 µM.

Turning to `O=C1CCN(c2cnn3ccc(CN4CCN(Cc5ccc(F)cc5)CC4)cc23)C(=O)N1` [Example 168], the Dmax at 25 µM came to 56%, the remaining activity at 25 µM came to 44% and the DC50 was 0.127 µM.

On to `CC(C)(F)CN1CCN(Cc2ccn3ncc(N4CCC(=O)NC4=O)c3c2)CC1` [Example 169], for which the Dmax at 25 µM stood at 55%, the remaining activity at 25 µM stood at 45% and the DC50 was found to be 0.326 µM.

On to `O=C1CCN(c2cnn3ccc(CN4CCN(Cc5cccc(F)c5)CC4)cc23)C(=O)N1` [Example 170], for which the Dmax at 25 µM was 53%, the remaining activity at 25 µM came to 47% and the DC50 is 0.228 µM.

In the case of `O=C1CCN(c2cnn3ccc(CN4CCN(CC(F)(F)F)CC4)cc23)C(=O)N1` [Example 171], the Dmax at 25 µM came to 52%, the remaining activity at 25 µM amounted to 48% and the DC50 came to 0.981 µM.

As for `O=C1CCN(c2cnn3ccc(CN4CCN(CC5(C(F)(F)F)CC5)CC4)cc23)C(=O)N1` [Example 172], the Dmax at 25 µM is 42%, the remaining activity at 25 µM is 58% and the DC50 was found to be 0.527 µM.

For the compound `O=C1CCN(c2cnn3ccc(CN4CCN(CC(F)(F)C(F)F)CC4)cc23)C(=O)N1` [Example 173], the Dmax at 25 µM was 42%, the remaining activity at 25 µM was determined as 58% and the DC50 turned out to be 0.771 µM.

Consider `O=C1CCN(c2cnn3ccc(CN4CCN(CC5CC(F)(F)C5)CC4)cc23)C(=O)N1` [Example 174], for which the Dmax at 25 µM was determined as 81%, the remaining activity at 25 µM is 19% and the DC50 worked out at 0.095 µM.

`CC(c1cccnc1)N1CCN(Cc2ccn3ncc(N4CCC(=O)NC4=O)c3c2)CC1` (stereo not drawn) [Example 175]: the Dmax at 25 µM came out at 40%, the remaining activity at 25 µM was determined as 60% and the DC50 amounted to 1.24 µM.

On to `O=C1CCN(c2cnn3ccc(CN4CCN(Cc5ccncc5)CC4)cc23)C(=O)N1` [Example 176], for which the Dmax at 25 µM turned out to be 38%, the remaining activity at 25 µM came to 62% and the DC50 was 1.4 µM.

As to `O=C1CCN(c2cnn3ccc(CN4CCN(CC5CCOC5)CC4)cc23)C(=O)N1` (stereo not drawn) [Example 177], the Dmax at 25 µM turned out to be 77%, the remaining activity at 25 µM was 23% and the DC50 turned out to be 0.106 µM.

As for `O=C1CCN(c2cnn3ccc(CN4CCN(CCc5ccccc5)CC4)cc23)C(=O)N1` [Example 178], the Dmax at 25 µM was 76%, the remaining activity at 25 µM was determined as 24% and the DC50 was 0.048 µM.

On to `CO[C@H]1CC[C@@H](CN2CCN(Cc3ccn4ncc(N5CCC(=O)NC5=O)c4c3)CC2)CC1` [Example 180, 1-(5-((4-(((1s,4s)-4-methoxycyclohexyl)methyl)piperazin-1-yl)methyl)pyrazolo[1,5-a]pyridin-3-yl)dihydropyrimidine-2,4(1H,3H)-dione], for which the Dmax at 25 µM amounted to 81%, the remaining activity at 25 µM was determined as 19% and the DC50 stood at 0.078 µM.
